Entries after “also recorded” stand apart in the source; their conditions may differ. Peptide text beside a SMILES is read from it. * marks the point of attachment. Cbz = O=C(OCc1ccccc1)*; CH2F = FC*

This note sets out measurements from patent US11013786B2, “Therapy” (SELECTIMMUNE PHARMA AB, priority 2015, dated 2021).

For one test, the system named is IL-1β processing. The test is described as follows: IL-1β processing in infected human bladder epithelial cells with caspase inhibition (Western blot). The class given is cell-based. Particulars: human bladder epithelial cells infected with acute cystitis strains, 4 h, pre-incubated with inhibitor 100 μM, 30 min. On the procedure:
Cells were cultured as described above, but in particular in 6-well plates (7×10^5 cells/well, Thermo Fisher Scientific), lysed with RIPA lysis buffer, supplemented with protease and phosphatase inhibitors (Roche Diagnostics). They may then be fractionated using NE-PER Nuclear and Cytoplasmic extraction reagents (Thermo Scientific). For Caspase inhibition, cells were pre-incubated with Z-VAD(OMe)-FMK (#BML-P416-0001, Enzo Life Science, 100 μM, 30 min). Supernatants were filtered and concentrated by trichloroacetic acid precipitation, followed by acetone desiccation. […] Bands were quantified by ImageJ. […]
Cell lysates and supernatants from infected cells were subjected to Western blot analysis, with antibodies specific for IL-1β. Two fragments of approximately 29 kDa and 16-18 kDa were detected, corresponding to the N-terminal pro-piece and mature IL-1β.
A general note: In western blotting, separated proteins are transferred to a membrane and probed.

Test [1] concerns Asc^−/− mice infected with E. coli CFT073. The test can be described thus: Acute cystitis immunotherapy in the experimental urinary tract infection model (Asc−/− mice infected with E. coli CFT073). The following applies: for macroscopic bladder pathology, edema and hyperemia: vs untreated. The class given is in vivo.
For the next test, the system named is IL-1β. The test can be described thus: IL-1β in urine of treated infected Asc−/− mice (Western blot analysis of urine samples). Particulars: CFT073, IL-1RA (Anakinra) 1 mg i.p. daily. Type of test: in vivo. The method, then:
IL-1β, IL-6 and IL-8 concentrations in filtered supernatants (Syringe Filter w/0.2 um PES, VWR) were determined by Immulite 1000 (Siemens) and Il-1β concentrations in cell supernatants or urine by Human or Mouse Il-1b/IL-1F2 DuoSet ELISA kits (R&D Systems). Urine MMP-7 levels were quantified with Human total MMP-7 Immunoassay Quantikine® ELISA (R&D Systems).
Cells were cultured as described above, but in particular in 6-well plates (7×10^5 cells/well, Thermo Fisher Scientific), lysed with RIPA lysis buffer, supplemented with protease and phosphatase inhibitors (Roche Diagnostics). They may then be fractionated using NE-PER Nuclear and Cytoplasmic extraction reagents (Thermo Scientific). For Caspase inhibition, cells were pre-incubated with Z-VAD(OMe)-FMK (#BML-P416-0001, Enzo Life Science, 100 μM, 30 min). Supernatants were filtered and concentrated by trichloroacetic acid precipitation, followed by acetone desiccation. […] Bands were quantified by ImageJ.
To address the contribution of MMP-7 to pathology, Asc^−/− mice were also treated with an MMP inhibitor (Batimastat), (0.5 mg in 100 μl of PBS i.p. 30 minutes before, first three and last three days of infection, FIG. 6A). […] By immunohistochemistry, some retention of unprocessed IL-1β in bladder tissue was detected, consistent with the need for MMP-7 and IL-1R to secrete mature IL-1β.

Setting [2] is: CFT073, Anakinra 1 mg i.p. daily, 7 days.

Consider `COC(=O)C[C@H](NC(=O)[C@H](C)NC(=O)[C@@H](NC(=O)OCc1ccccc1)C(C)C)C(=O)CF` [Z-VAD, Z-VAD(OMe)-FMK] (Cbz-Val-Ala-Asp(OMe)-CH2F), for which the “inhibition of IL-1β processing” value in the test on IL-1β processing is given as “about 20%”.

As for “Anakinra: IL-1 receptor antagonist, Anakinra (Kineret, SOBI)”, in test [1] (setting [2]), the mucosal integrity entry is recorded as “maintained”; the mucosal neutrophil infiltrate entry is listed as “prevented”; the “macroscopic bladder pathology, edema and hyperemia” value is reported as “protected”. The urine neutrophil numbers entry in test [1] (CFT073, Anakinra 1 mg i.p. daily, 7 days after infection) was “low”. Further, the “pathology in bladder tissue sections” value in test [1] (CFT073, Anakinra 1 mg i.p. daily, 7 days, H&E) was “marked reduction”. The “macroscopic bladder pathology, edema and hyperemia” value in test [1] (CFT073, Anakinra 1 mg i.p. daily, 7 days, listed as IL-1RA) was “prevented”. Besides, in test [1] (CFT073, Anakinra 1 mg i.p. daily, urine, 7 days after infection), the bacterial counts entry is listed as “remained elevated”. For the same compound, the “therapeutic effect / protection from acute cystitis” value in test [1] (E. coli CFT073, Anakinra 1 mg in 100 μl PBS i.p. 30 min before and daily after infection, 7 days, vs untreated Asc−/− mice) is recorded as “dramatic therapeutic effect; also recorded: protects; also recorded: prevented”. Also, the “mature IL-1β in urine” value with IL-1β is listed as “loss”.
